Results on two molecules are retold here after patent US11730712B2, “Functionalized long-chain hydrocarbon mono- and di-carboxylic acids and derivatives thereof, and their use for the prevention or treatment of disease” (ESPERVITA THERAPEUTICS, INC., priority 2021, dated 2023).

A word on the Cmax: it is the peak of the concentration-time curve. In general, half-life refers to the time in which the quantity being followed falls by half.

Data set [1] in a line: Single and repeat dose plasma and tissue pharmacokinetics in male C57BL/6 mice. In kind it is in vivo, mouse. An excerpt: Materials and methods. The study involved two arms; a single dose pharmacokinetic study and a 4-day repeated-dose pharmacokinetic study. For each arm, 56 inbred male C57BL/6 mice, aged at 6-7 week, were included. All animals were purchased from Charles River Lab (CRL, MA). Upon their arrival, they were kept in special-pathogen-free environment all the time. Briefly, they were housed in group on corncob bedding (ScottPharma, MA) in Innovive® caging system (Innovive, Calif.) on a 12-hour light-dark cycle (0700-1900) at 68-74° F., and 30-70% humidity. They were allowed continually to access water and regular rodent Purina 5001 diet (ScottPharma, MA) ad libitum and to acclimate in the facility for 5 days. Animal handling and procedures were conducted under the protocols and/or guidelines approved by the Institutional Animal Care and Use Committee (IACUC) of […] Biosciences, Inc. […] Also, 2× drug vehicle (3% CMC+0.4% Tween-20) was prepared and stored at 4° C. for a week. On the day of injection, 1 ml frozen 2× aqueous stock solution (20 mg/ml drug solution) aliquot is thawed and mix with another 1 ml 2× drug vehicle (3% Carboxymethyl cellulose+0.4% Tween 20) to prepare 10 mg/ml drug solution. A 25 g mouse would receive 250 μl of 10 mg/ml solution for a dose of 100 mg/kg. Lower concentrations can be achieved by further diluting the 10 mg/ml in 1× vehicle solution with 1× vehicle prepared with milliQ water. On each dosing day, both compound stocks and 2× vehicle were warmed to room temperature and was mixed at 1:1 ratio, given to a concentration of 10 mg/mL. Then 1: 5-fold dilutions were obtained with 1× vehicle to 2 mg/mL. Dosing volume at 10 mL/kg (final dosage: 20 mg/kg) in the morning. […] Study Design. In each group 4 male 6-7-week-old C57BL/6 mice were used. Doses were administered once daily via oral gavage for either a day (single dose arm, QD×1) or 4 consecutive days (repeated dose arm, QD×4) (FIG. 26). Blood, half of brain hemisphere, and one lobe of liver samples were collected from all animals of Day 1 (QD×1 arm) at pre-dose and 0.25, 2, 4, 8, 24 and 36 hours post dose, or Day 4 (QD×4 arm) at pre-dose and 0.25, 2, 4, 8, 24 and 48 hours post dose. Blood samples were collected by cardiac puncture. The blood samples were maintained in wet ice first and centrifuged to obtain plasma (2000×g, 4° C., 5 min). All three samples from each mouse were analyzed for either Compound I-1 or Compound I-32 contents by Integrated Analytical Solutions (Berkeley, Calif.) and the results were used for the generation of the pharmacokinetic graphs. Sample collection, storage, bioanalysis and statistical analysis. All plasma and tissue samples were analyzed by discovery grade bioanalytical method developed for estimation of each test compound in plasma and tissue samples using LC-MS/MS systems. Plasma samples were prepared as follows. Three volumes of acetonitrile containing internal standard was added to one volume of plasma to precipitate proteins. Samples were centrifuged (3000×g for 10 min) and supernatant removed for analysis by LC-MS/MS. Calibration standards and quality controls were made by preparation of a 1 mg/mL stock solution in MeOH and subsequently a series of working solutions in MeOH:water (1/1, v/v) which were spiked into blank plasma to yield a series of calibration standard samples in the range of 1.0 ng/mL to 10 μg/mL. All incurred PK/PD plasma samples were treated identically to the calibration standards and quality control samples. LC-MS/MS analysis was performed utilizing multiple reaction monitoring for detection of characteristic ions for each drug candidate, additional related analytes and internal standard. Tissue samples were prepared as follows, three volumes of PBS buffer (pH 7.4) were added to one volume of each tissue sample which was then homogenized to obtain each tissue homogenate sample. […]

Data set [2] relates to expanded HSPC / megakaryocytes. Description: Platelet production from expanded HSPC cultured into megakaryocytes. As to conditions: added to expanded HSPC at day 0 or day 6, cultured into megakaryocytes for 8 days. In kind it is cell-based. As for the experimental part:
Compound I-32 (A) and Compound I-1 (B) were added to expanded HSPC at day 0 (FIGS. 25A-25E) as they were cultured into megakaryocytes for 8 days or at day 6 (FIGS. 25F-25J). CD41a cell count (FIG. 25A), CD41aCd42b+ cell count (FIG. 25B), platelet levels (FIG. 25C), CD41a MFI (FIG. 25D) and CD41a FSC cell size (FIG. 25E) were analyzed at day 0. CD41a cell count (FIG. 25F), CD41aCd42b+ cell count (FIG. 25G), platelet levels (FIG. 25H), CD41a MFI (FIG. 25I) and CD41a FSC cell size (FIG. 25J) were analyzed at day 6.

The subject of data set [3] is human hematopoietic stem and progenitor cells (CD45+CD34+). Description: Megakaryopoiesis and platelet production in cultured hematopoietic stem and progenitor cells. In kind it is cell-based. As to conditions: 30 μM, added day 6. As for the experimental part:
Materials and Methods. Hematopoietic stem and progenitor cells, identified as viable CD45+CD34+ cells, were isolated from peripheral blood of healthy donors by a method known in the art (see Ivetic N. Nazi I, Karim N et al. Producing megakaryocytes from a human peripheral blood source. Transfusion 2016; 56:1066-74). These isolated cells were then analyzed for purity before being expanded for four days using a commercial supplement to increase their cell population. After expansion, the cells were analyzed for purity, washed, and stimulated with a saturating concentration of thrombopoietin (20 ng/mL) and stem cell factor (50 ng/mL) to begin megakaryopoiesis. Compound I-32 and Compound I-1 were added at this timepoint at a concentration of 30 μM. The cells were then cultured for 8 days to develop into megakaryocytes and analyzed via flow cytometry to assess their number, maturity, and platelet count as defined by CD41a, CD42b and Calcein-AM expression. In addition, Compound I-32 and Compound I-1 were added to cells during the later stages of development (day 6) to assess their impact on maturation. ABT-737 ([…]) was used as a positive control and a DMSO vehicle control (<0.15% v/v) was the negative control. […]
Statistical analysis. Statistical analyses were carried out by comparing effects on measured parameters in comparison to vehicle control. […]

Where [4] appears, read: male, C57BL/6, mouse brain, 20 mg/kg/day PO, repeat dose QD × 4.
[5] abbreviates: male, C57BL/6, mouse liver, 20 mg/kg PO, single dose QD × 1.
[6] abbreviates: male, C57BL/6, mouse liver, 20 mg/kg/day PO, repeat dose QD × 4.
The mark [7] stands for this setting: male, C57BL/6, mouse plasma, 20 mg/kg PO, single dose QD × 1.
Where [8] appears, read: male, C57BL/6, mouse plasma, 20 mg/kg/day PO, repeat dose QD × 4.
Setting [9] is: mouse brain, 20 mg/kg PO, single dose QD × 1.
[10] abbreviates: mouse brain, 20 mg/kg/day PO, repeat dose QD × 4.
Setting [11] is: mouse liver, 20 mg/kg PO, single dose QD × 1.
The mark [12] stands for this setting: mouse liver, 20 mg/kg/day PO, repeat dose QD × 4.

`CC(C)(CCCCc1ccc(CCCCC(C)(C)C(=O)O)cc1)C(=O)O` [Compound I-1, 6-[4-(5-carboxy-5-methylhexyl)-phenyl]-2,2-dimethylhexanoic acid]: the Cmax in data set [1] (setting [4]) came out at 169 ng/g. Besides, the half-life in data set [1] (setting [5]) was 9.6 h; in data set [1] (setting [6]) it was 20.4 h; in data set [1] (setting [7]), 15.3 h; in data set [1] (setting [8]), 22 h. The AUC0-t entry in data set [1] (mouse brain, 20 mg/kg PO, QD × 1, value in brackets with * (reanalysis)) is recorded as “(2,091)* h*ng/g”; in data set [1] (setting [9]), 1,183 h*ng/g; in data set [1] (mouse brain, 20 mg/kg/day PO, QD × 4, value in brackets with * (reanalysis)), “(3,995)* h*ng/g”; in data set [1] (setting [10]), 1,220 h*ng/g; in data set [1] (mouse liver, 20 mg/kg PO, QD × 1, timepoint 0.25 h samples after reanalysis), “(469,726)* h*ng/g”; in data set [1] (setting [11]) it was 425,184 h*ng/g. Moreover, the AUC0-t result is recorded as “(718,455)* h*ng/g” in data set [1] (mouse liver, 20 mg/kg/day PO, QD × 4, timepoint 0.25 h samples after reanalysis) and 687,414 h*ng/g in data set [1] (setting [12]). Besides, the platelet production result in data set [2] is “do not significantly affect”. In addition, the “inhibition of megakaryopoiesis/platelet parameters after addition on day 6 of culture” value in data set [3] is “no inhibition detected”.
For the molecule `CC(C)(CCCCc1cccc(CCCCC(C)(C)C(=O)O)c1)C(=O)O` [Compound I-32, 6-[3-(5-carboxy-5-methylhexyl)-phenyl]-2,2-dimethylhexanoic acid], the half-life was 3 h in data set [1] (male, C57BL/6, mouse brain, 20 mg/kg PO, single dose QD × 1); 8 h in data set [1] (setting [4]); 13 h in data set [1] (setting [5]); 16 h in data set [1] (setting [6]); 9 h in data set [1] (setting [7]); 9.2 h in data set [1] (setting [8]). For the same molecule, the AUC0-t is 1,527 h*ng/g in data set [1] (setting [9]), 6,304 h*ng/g in data set [1] (setting [10]), 405,934 h*ng/g in data set [1] (setting [11]) and 1.01e+06 ng·h/g in data set [1] (setting [12]). Also, in data set [2], the platelet production entry is given as “do not significantly affect”. Also, the “inhibition of megakaryopoiesis/platelet parameters after addition on day 6 of culture” value in data set [3] is reported as “no inhibition detected”.
